Source: patent publication CN103739655A, “28-O-β-D-葡萄糖基化远志皂苷、其制备方法及用途” (Individual, priority 2013, dated 2014)

Legend:
Type in all cases: in vivo
[1] = tested on: rat AA model (大鼠AA模型); assay: rat AA model (FCA-induced primary inflammation); conditions: for 6 h swelling degree / 12 h swelling degree / 18 h swelling degree / 24 h swelling degree: intragastric from 3 days before FCA; for 6 h swelling degree: 6 h after FCA, control 0.49±0.06; for 12 h swelling degree: 12 h after FCA, control 0.54±0.07; for 18 h swelling degree: 18 h after FCA, control 0.64±0.07; for 24 h swelling degree: 24 h after FCA, control 0.50±0.06
[2] = tested on: carrageenan-induced rat paw swelling (角叉菜胶致大鼠足肿胀模型); assay: carrageenan-induced paw swelling model in rats; conditions: intragastric; for 1 h swelling degree / 3 h swelling degree / 5 h swelling degree / 7 h swelling degree: once daily for 3 days; for 1 h swelling degree: 1 h after carrageenan, control 0.41±0.12; for 3 h swelling degree: 3 h after carrageenan, control 0.83±0.13; for 5 h swelling degree: 5 h after carrageenan, control 0.70±0.12; for 7 h swelling degree: 7 h after carrageenan, control 0.63±0.11
[3] = tested on: xylene-induced mouse ear swelling (二甲苯所致小鼠耳肿胀模型); assay: xylene-induced ear swelling model in mice; conditions: intragastric
[4] = 25, 50, 100 mg/kg, intragastric

28-O-β-D-葡萄糖基化远志皂苷
6 h swelling degree ([1]; 25 mg/kg (low dose)): 0.45 ± 0.05 mL | 12 h swelling degree ([1]; 25 mg/kg (low dose)): 0.51 ± 0.16 mL | 18 h swelling degree ([1]; 25 mg/kg (low dose)): 0.61 ± 0.13 mL | 24 h swelling degree ([1]; 25 mg/kg (low dose)): 0.46 ± 0.15 mL | 6 h swelling degree ([1]; 50 mg/kg (medium dose)): 0.28 ± 0.05 mL | 12 h swelling degree ([1]; 50 mg/kg (medium dose)): 0.30 ± 0.08 mL | 18 h swelling degree ([1]; 50 mg/kg (medium dose)): 0.33 ± 0.06 mL | 24 h swelling degree ([1]; 50 mg/kg (medium dose)): 0.27 ± 0.07 mL | 6 h swelling degree ([1]; 100 mg/kg (high dose)): 0.15 ± 0.06 mL | 12 h swelling degree ([1]; 100 mg/kg (high dose)): 0.19 ± 0.08 mL | 18 h swelling degree ([1]; 100 mg/kg (high dose)): 0.30 ± 0.07 mL | 24 h swelling degree ([1]; 100 mg/kg (high dose)): 0.25 ± 0.06 mL | concentration dependence of inhibition of primary inflammation in AA rats [1, 4]: 具有一定的浓度依赖性 | inhibition of FCA-induced primary inflammation in AA rats [1, 4]: 有明显的抑制作用 | 1 h swelling degree ([2]; 25 mg/kg (low dose)): 0.33 ± 0.05 mL | 3 h swelling degree ([2]; 25 mg/kg (low dose)): 0.64 ± 0.16 mL | 5 h swelling degree ([2]; 25 mg/kg (low dose)): 0.48 ± 0.13 mL | 7 h swelling degree ([2]; 25 mg/kg (low dose)): 0.33 ± 0.07 mL | 1 h swelling degree ([2]; 50 mg/kg (medium dose)): 0.17 ± 0.05 mL | 3 h swelling degree ([2]; 50 mg/kg (medium dose)): 0.45 ± 0.12 mL | 5 h swelling degree ([2]; 50 mg/kg (medium dose)): 0.39 ± 0.07 mL | 7 h swelling degree ([2]; 50 mg/kg (medium dose)): 0.19 ± 0.05 mL | 1 h swelling degree ([2]; 100 mg/kg (high dose)): 0.11 ± 0.05 mL | 3 h swelling degree ([2]; 100 mg/kg (high dose)): 0.37 ± 0.13 mL | 5 h swelling degree ([2]; 100 mg/kg (high dose)): 0.31 ± 0.08 mL | 7 h swelling degree ([2]; 100 mg/kg (high dose)): 0.16 ± 0.09 mL | concentration dependence of inhibition of rat paw swelling ([2]; 25, 50, 100 mg/kg): 具有一定的浓度依赖性 | inhibition of carrageenan-induced rat paw swelling ([2]; 25, 50, 100 mg/kg): 有抑制作用 | inhibition rate ([3]; 25 mg/kg (low dose), once daily for 3 days, ear swelling vs control, P<0.05): 6.5% | inhibition rate ([3]; 50 mg/kg (medium dose), once daily for 3 days, ear swelling vs control, P<0.01): 39.1% | inhibition rate ([3]; 100 mg/kg (high dose), once daily for 3 days, ear swelling vs control, P<0.01): 48.4% | inhibition of xylene-induced acute inflammation of mouse auricle ([3]; 25, 50, 100 mg/kg): 能抑制

COc1ccc2cc([C@H](C)C(=O)O)ccc2c1 [萘普生, reference compound]
6 h swelling degree ([1]; 30 mg/kg): 0.16 ± 0.09 mL | 12 h swelling degree ([1]; 30 mg/kg): 0.22 ± 0.07 mL | 18 h swelling degree ([1]; 30 mg/kg): 0.29 ± 0.08 mL | 24 h swelling degree ([1]; 30 mg/kg): 0.28 ± 0.06 mL | 1 h swelling degree ([2]; 30 mg/kg): 0.08 ± 0.07 mL | 3 h swelling degree ([2]; 30 mg/kg): 0.21 ± 0.05 mL | 5 h swelling degree ([2]; 30 mg/kg): 0.13 ± 0.08 mL | 7 h swelling degree ([2]; 30 mg/kg): 0.12 ± 0.07 mL | inhibition at 45 mg/kg ([3]; Mus musculus, po, 72 h, 45 mg/kg, once daily for 3 days, ear swelling vs control, P<0.01, read-out: inhibition rate): 45.7%
